Results from patent publication US20180353512A1, “COMBINATION THERAPIES FOR TREATING B-CELL MALIGNANCIES” (GILEAD SCIENCES, INC., priority 2015, published 2018).

Tests used:
Assay type in all cases: cell-based
SU-DHL-8 cells = assay: ATPLite anti-proliferation assay (GI) and synergy score, 120 h
Experimental: (§1) The endpoint readout of the anti-proliferation assay was based upon quantitation of ATP as an indicator of viable cells. Cells were thawed from a liquid nitrogen preserved state. Once cells had been expanded and divided at their expected doubling times, screening began. Cells were seeded in growth media in black 384-well tissue culture treated plates at 500 cells per well (except where noted in Analyzer). Cells were equilibrated in assay plates via centrifugation and placed in incubators attached to the Dosing Modules at 37° C. for twenty-four hours before treatment. […] These Tzero (T0) plates were read using ultra-sensitive luminescence on Envision Plate Readers. Treated assay plates were incubated with the compound for one hundred twenty hours. After one hundred twenty hours, plates were developed for endpoint analysis using ATPLite. All data points were collected via automated processes; quality controlled; and analyzed using Horizon CombinatoRx proprietary software. Assay plates were accepted if they pass the following quality control standards: relative luciferase values were consistent throughout the entire experiment, Z-factor scores were greater than 0.6, untreated/vehicle controls behaved consistently on the plate.
(§2) Horizon Discovery utilized Growth Inhibition (GI) as a measure of cell viability. The cell viability of vehicle was measured at the time of dosing (T0) and after one hundred twenty hours (T120). A GI reading of 0% represented no growth inhibition—cells treated with compound and T120 vehicle signals were matched. […] A GI 200% represents complete death of all cells in the culture well. Compounds reaching an activity plateau of GI 200% were considered cytotoxic. Horizon CombinatoRx calculates GI by applying the following test and equation: […]
(§3) To measure combination effects in excess of Loewe additivity, Horizon Discovery has devised a scalar measure to characterize the strength of synergistic interaction termed the Synergy Score. The Synergy Score was calculated as:
(§4) Synergy Score=log fx log fyΣmax(0,Idata)(Idata−ILoewe)
(§5) The fractional inhibition for each component agent and combination point in the matrix was calculated relative to the median of all vehicle-treated control wells. The Synergy Score equation integrated the experimentally-observed activity volume at each point in the matrix in excess of a model surface numerically derived from the activity of the component agents using the Loewe model for additivity. Additional terms in the Synergy Score equation (above) were used to normalize for various dilution factors used for individual agents and to allow for comparison of synergy scores across an entire experiment. The inclusion of positive inhibition gating or an Idata multiplier removed noise near the zero effect level, and biased results for synergistic interactions at that occur at high activity levels.
(§6) The cell viability of vehicle was measured at the time of dosing (T0) and after 120 h (T120). […] To measure combination effects, excess of Loewe additivity was used to characterize the strength of synergistic interaction, termed the synergy score. The assay and synergy score analysis were performed in accordance with the protocol set forth in Example 1B above.
(§7) The assay and synergy score analysis were performed in accordance with the protocol set forth in Example 3A above.

U2973 cells = assay: as above
Experimental: as §1, §2, §3, §4, §5, §6, §7

SU-DHL-10 cells = assay: as above
Experimental: as §1, §2, §3, §4, §5, §6, §7

SU-DHL-2 cells = assay: as above
Experimental: as §1, §2, §3, §4, §5, §6, §7

OCI-Ly4 cells = assay: as above
Experimental: as §1, §2, §3, §4, §5, §6, §7

Ri-1 cells = assay: as above
Experimental: as §1, §2, §3, §4, §5, §6, §7

OCI-Ly3 cells = assay: as above
Experimental: as §1, §2, §3, §4, §5, §6, §7

pBTK (Y223) = assay: TMD-8 Western Blots; settings: for pBTK (Y223), Western Blot: TMD-8
Experimental: (§8) Western Blot samples were prepared by lysing 10^6 cells for 30 minutes in 150 μL ice-cold lysis buffer. Protease Inhibitor Cocktail (Roche Diagnostics Corp), and phosphatase inhibitor sets 1 and 2 (EMD Millipore) were also added to the lysis buffer (Cell Signaling Technology). Cells were centrifuged at 12.5 g for 10 minutes at 4° C.; supernatant was collected and transferred to new tube. Sample buffer was added to each lysate, and then boiled at 99° C. for 5 minutes. Protein was loaded into an SDS-PAGE gel and run for 2 h at 125V. After electrophoresis, gel was transferred to Immobilon-F membrane using the X Cell Blot. The membrane was then blocked for 1 h at room temperature in blocking buffer and incubated overnight with primary antibodies diluted in a blocking buffer. The following day, the membranes were washed 3× (5 min each) with TBST; secondary antibodies were added and membrane was incubated for 45 minutes at room temperature, followed by 3×TBST (5 min each). Blots were read using Licor Imager. Primary antibodies included p-AKT (S473), p-BTK (Y223), BTK, p-ERK (T202/Y204), ERK, and actin (Cell Signaling Technologies), and secondary antibodies included IRDye-conjugated anti-mouse and anti-rabbit antibodies; LI-COR. Band intensity was measured using LI-COR imager and LI-COR Odyssey software.

pAKT (Ser 473) = assay: TMD-8 Western Blots; settings: for pAKT (Ser 473), Western Blot: TMD-8
Experimental: as §8

pErk1/2 (T202/Y204) = assay: TMD-8 Western Blots; settings: for pErk1/2 (T202/Y204), Western Blot: TMD-8
Experimental: as §8

p-AKT S473 = assay: Western Blot / Peggy Sue in TMD8^R cells (Example 7); settings: idelalisib 420 nM, Compound B 320 nM
Experimental: (§9) Idelalisib-resistant (TMD8^R) cell line and passage-matched Idelalisib-sensitive (TMD8^S) cell line were generated according to the procedure described in Example 5 above. To characterize the resistant cells, cell viability assays, RNASeq of multidrug resistance (MDR) family of ABC transporter genes (N=33), apoptosis assays, and phosphoprotein analysis were performed. Cell viability was measured using CellTiter-Glo, as described in Example 1A above. Western blot and protein level analysis were performed after treatment with 420 nM idelalisib, 320 nM Compound B and combination thereof, using Peggy Sue (ProteinSimple) automated Western Blot system. Protein concentration (pg/μL) was quantitated using recombinant protein standards. Normalized AUC were determined for each of the treatment groups, normalized to actin. Apoptosis was assessed by propidium iodide and Annexin V/FITC staining and measured by flow cytometry, as described in Example 1A above. Western Blot with anti-p-AKT (S473) antibody and Peggy Sue were used to determine the phosphorylation state of downstream signaling components.

p-BTK = assay: as above; settings: idelalisib 420 nM, Compound B 320 nM
Experimental: as §9

[1] = Homo sapiens, TMD8, FIG. 2E, single agent, idelalisib 420 nM, Compound B 320 nM, time not stated, read-out: inhibition to p-AKT (S473)
[2] = Homo sapiens, TMD8, FIG. 2E, single agent, idelalisib 420 nM, Compound B 320 nM, time not stated, read-out: inhibition to p-ERK (T202/Y204)

Row | SMILES | Max. Effect (% GI) (SU-DHL-8 cells) | Max. Effect (% GI) (U2973 cells) | Max. Effect (% GI) (SU-DHL-10 cells) | Max. Effect (% GI) (SU-DHL-2 cells) | Max. Effect (% GI) (OCI-Ly4 cells) | Max. Effect (% GI) (Ri-1 cells) | Max. Effect (% GI) (OCI-Ly3 cells) | inhibition at 0.32 µM (pBTK (Y223); Homo sapiens, TMD8, FIG. 2E, single agent, Compound B 320 nM, time not stated, read-out: inhibition of p-BTK (Y223)) [%] | pBTK (Y223), Western Blot (pBTK (Y223); 2 hr, DMSO 0.36) | pBTK (Y223), Western Blot (pBTK (Y223); 24 hr, DMSO 0.33) | inhibition at 0.32 µM (pAKT (Ser 473); [1]) [%] | pAKT (Ser 473), Western Blot (pAKT (Ser 473); 2 hr, DMSO 0.45) | pAKT (Ser 473), Western Blot (pAKT (Ser 473); 24 hr, DMSO 0.54) | inhibition at 0.32 µM (pErk1/2 (T202/Y204); [2]) [%] | pErk1/2 (T202/Y204), Western Blot (pErk1/2 (T202/Y204); 2 hr, DMSO 1.09) | pErk1/2 (T202/Y204), Western Blot (pErk1/2 (T202/Y204); 24 hr, DMSO 1.49) | p-AKT (p-AKT S473) | p-BTK (p-BTK) | inhibition at 0.42 µM (pAKT (Ser 473); [1]) [%] | inhibition at 0.42 µM (pErk1/2 (T202/Y204); [2]) [%]
1 | CC#CC(=O)N1CC[C@@H](n2c(=O)n(-c3ccc(Oc4ccccc4)cc3)c3c(N)ncnc32)C1 [Compound B, 6-amino-9-[(3R)-1-(2-butynoyl)-3-pyrrolidinyl]-7-(4-phenoxyphenyl)-7,9-dihydro-8H-purin-8-one] | 1 | 14 | 0 | 18 | 25 | 48 | 0 | 59 | 0.16 normalized integrated intensity | 0.14 normalized integrated intensity | 46 | 0.24 normalized integrated intensity | 0.35 normalized integrated intensity | 48 | 0.47 normalized integrated intensity | 0.93 normalized integrated intensity | not | inhibited |  | 
2 | CCC(Nc1ncnc2[nH]cnc12)c1nc2cccc(F)c2c(=O)n1-c1ccccc1 (centres unmarked) [Idelalisib, 2-(1-((9H-Purin-6-yl)amino)propyl)-5-fluoro-3-phenylquinazolin-4(3H)-one] | 43 | 85 | 0 | 8 | 194 | 78 | 20 |  | 0.39 normalized integrated intensity | 0.27 normalized integrated intensity |  | 0.19 normalized integrated intensity | 0.12 normalized integrated intensity |  | 0.40 normalized integrated intensity | 0.55 normalized integrated intensity | inhibited | not | 58 | 71
